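Where inhibition never reached the appropriate level, the endpoint shown equals the highest concentration tested. Otherwise, values were interpolated linearly from a five-concentration, 48-hour dose response in 96-well plates. Abbreviation: GI50, concentration required for 50% inhibition of growth. At the TGI there is no net growth.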 A value given as a limit tells only on which side of the number the result lay.

In one experiment the test system is HCC-2998 colon. Kind of experiment: DTP human tumour cell line panel, 48 h.
Molecule `CCOc1ccc(NC(=O)CC2Sc3ccccc3NC2=O)cc1` (stereo not drawn) yielded a total growth inhibition concentration (TGI) of more than 100 µM.

As for `Cn1cc(NC(=O)c2cc(NC(=O)CCCCCCCCCCC(=O)Nc3cc(C(=O)Nc4cc(C(=O)NCCC(=N)N)n(C)c4)n(C)c3)cn2C)cc1C(=O)NCCC(=N)N`, the TGI was determined as 73.6 µM.

For `C1COCCN1.C1COCCN1.N.N.[Cl-].[Pt+2]`, the GI50 was more than 100 µM and the TGI is more than 100 µM.

`Cc1ccccc1C(C#N)C(=O)C(=O)Nc1nc([N+](=O)[O-])cs1` (stereo not drawn) showed a concentration for total growth inhibition (TGI) of more than 100 µM.

Molecule `COC(=O)C(c1[nH]nc2ccccc12)C(C(=O)OC)c1[nH]nc2ccccc12` (stereo not drawn) returned a TGI of more than 100 µM.

Consider `C#CCNC(=O)NC(CCCNC(=O)OCc1ccccc1)C(=O)OCc1ccccc1` (stereo not drawn), for which the concentration for total growth inhibition (TGI) was more than 100 µM.

Regarding `COc1ccc2cc1Oc1ccc(cc1)C[C@H]1c3cc(c(OC)cc3CCN1C)Oc1c(OC)c(OC)cc3c1[C@H](C2)N(C)CC3`, the TGI worked out at 8.65 µM.

The molecule `O=c1[nH]c2ccccc2cc1C(Cl)=C(Cl)Cl` had a TGI of more than 100 µM.

In turn, `COC(=O)C(C#N)=C1c2ccccc2Oc2ccccc21` registered a total growth inhibition concentration (TGI) of more than 100 µM.

As to `COc1c(C2CC(=O)Nc3c2cnn3Cc2ccco2)cc2c(c1OC)OCO2` (stereo not drawn), the GI50 was 1.1 µM and the TGI is more than 28.4 µM.

In turn, `N#CC1(c2nc3ccccc3o2)C(=O)C(=O)N(C2C3CC4CC(C3)CC2C4)C(=O)C1=O` (stereo not drawn) showed a TGI of more than 100 µM.

Molecule `O=C1NC(c2ccc(O)cc2)C2CCC1C2` (stereo not drawn) yielded a TGI of more than 100 µM.

Molecule `CCOC(=O)C1(CC)CCCCC(=O)N1` (stereo not drawn) registered a concentration for total growth inhibition (TGI) of more than 100 µM.

Molecule `C=CC1=CSNN1` came in with a TGI of more than 100 µM.

For the molecule `O=C(C#Cc1c[nH]c(=O)[nH]c1=O)c1ccccc1Cl`, the TGI came to 30.8 µM.

Take `CC(=O)OC1=C2CC3(C)OC(=O)CC(C)(C)C3=CC=C2C=C(C(C)C)C1=O` (stereo not drawn): the concentration for total growth inhibition (TGI) came to 2.15 µM.

`CCCCCCCCCCCCCCCC(=O)NCC(COP(=O)([O-])OCC[N+](C)(C)C)OCC` (stereo not drawn): the TGI stood at 3.1 µM.

Consider `COc1ccc(C(=O)Nc2ncc(Cc3ccc(Cl)cc3)s2)cc1`, for which the GI50 is 0.166 µM and the total growth inhibition concentration (TGI) stood at 12.7 µM.

With `O=C1CCCN(c2ccccc2)N1`, the concentration for total growth inhibition (TGI) is more than 100 µM.

Turning to `CN(C)/C(=N/C(=S)Nc1ccccc1)SCc1ccccc1`, the concentration for total growth inhibition (TGI) is more than 100 µM.

`CCOC(=O)C1=C(C)Nc2ccccc2S1` returned a TGI of more than 100 µM.

Regarding `Nc1n[nH]c2ccc([C@@H]3Nc4ccc5[nH]ncc5c4[C@H]4[C@H]5CCC(C5)[C@H]43)cc12`, the 50% growth inhibitory concentration (GI50) was 0.381 µM and the concentration for total growth inhibition (TGI) came to 11.6 µM.

`CCOC(=O)CC1=Nc2ccccc2SC1` registered a total growth inhibition concentration (TGI) of more than 100 µM.

For the molecule `C=CCSC[C@H](NC(=O)COc1ccccc1)C(=O)NC(C(=O)OCc1ccc([N+](=O)[O-])cc1)=C(C)C`, the TGI was more than 100 µM.

The subject of the next experiment is SF-539 CNS. Briefly: DTP human tumour cell line panel, 48 h.
Take `C[C@@H]1CC[C@H]2C(COCC3=C(C(F)(F)F)O[C@@H]4O[C@@]5(C)CC[C@H]6[C@H](C)CC[C@@H]3[C@@]46OO5)=C(C(F)(F)F)O[C@@H]3O[C@@]4(C)CC[C@@H]1[C@]32OO4`: the concentration for 50% growth inhibition (GI50) was less than 0.01 µM and the TGI was more than 100 µM.

Molecule `CCOc1ccc(NC(=O)CC2Sc3ccccc3NC2=O)cc1` (stereo not drawn) showed a TGI of more than 100 µM.

`Cn1cc(NC(=O)c2cc(NC(=O)CCCCCCCCCCC(=O)Nc3cc(C(=O)Nc4cc(C(=O)NCCC(=N)N)n(C)c4)n(C)c3)cn2C)cc1C(=O)NCCC(=N)N` came in with a TGI of more than 100 µM.

Take `C1COCCN1.C1COCCN1.N.N.[Cl-].[Pt+2]`: the GI50 is more than 100 µM and the total growth inhibition concentration (TGI) is more than 100 µM.

Consider `Cc1ccccc1C(C#N)C(=O)C(=O)Nc1nc([N+](=O)[O-])cs1` (stereo not drawn), for which the total growth inhibition concentration (TGI) was more than 100 µM.

On to `COC(=O)C(c1[nH]nc2ccccc12)C(C(=O)OC)c1[nH]nc2ccccc12` (stereo not drawn), for which the total growth inhibition concentration (TGI) is 44.9 µM.

Turning to `C#CCNC(=O)NC(CCCNC(=O)OCc1ccccc1)C(=O)OCc1ccccc1` (stereo not drawn), the total growth inhibition concentration (TGI) was more than 100 µM.

Consider `COc1ccc2cc1Oc1ccc(cc1)C[C@H]1c3cc(c(OC)cc3CCN1C)Oc1c(OC)c(OC)cc3c1[C@H](C2)N(C)CC3`, for which the GI50 is 2.03 µM.

Molecule `O=c1[nH]c2ccccc2cc1C(Cl)=C(Cl)Cl` yielded a TGI of more than 100 µM.

As to `O=[N+]([O-])[C@@H]1C2C=CC(C2)[C@H]1Cl` (stereo partly drawn), the concentration for total growth inhibition (TGI) is more than 100 µM.

Consider `COC(=O)C(C#N)=C1c2ccccc2Oc2ccccc21`, for which the concentration for total growth inhibition (TGI) is more than 100 µM.

`COc1c(C2CC(=O)Nc3c2cnn3Cc2ccco2)cc2c(c1OC)OCO2` (stereo not drawn): the GI50 was 0.434 µM and the TGI came out at 4.36 µM.

Take `N#CC1(c2nc3ccccc3o2)C(=O)C(=O)N(C2C3CC4CC(C3)CC2C4)C(=O)C1=O` (stereo not drawn): the TGI was more than 100 µM.

For the molecule `C=CC1=CSNN1`, the TGI was more than 100 µM.

On to `O=C(C#Cc1c[nH]c(=O)[nH]c1=O)c1ccccc1Cl`, for which the TGI was determined as 30 µM.

On to `CCCCCCCCCCCCCCCC(=O)NCC(COP(=O)([O-])OCC[N+](C)(C)C)OCC` (stereo not drawn), for which the TGI worked out at 29.8 µM.

`COc1ccc(C(=O)Nc2ncc(Cc3ccc(Cl)cc3)s2)cc1`: the concentration for 50% growth inhibition (GI50) was 0.047 µM and the concentration for total growth inhibition (TGI) is 0.516 µM.

As to `O=C1NC2(CCCC2)C(=O)C12CCCC2`, the total growth inhibition concentration (TGI) is more than 100 µM.

`O=C1CCCN(c2ccccc2)N1` returned a TGI of more than 100 µM.

With `CN(C)/C(=N/C(=S)Nc1ccccc1)SCc1ccccc1`, the concentration for total growth inhibition (TGI) was more than 100 µM.

Molecule `CCOC(=O)C1=C(C)Nc2ccccc2S1` registered a concentration for total growth inhibition (TGI) of more than 100 µM.

In the case of `Nc1n[nH]c2ccc([C@@H]3Nc4ccc5[nH]ncc5c4[C@H]4[C@H]5CCC(C5)[C@H]43)cc12`, the GI50 was 0.238 µM and the total growth inhibition concentration (TGI) came out at 0.673 µM.

`CCOC(=O)CC1=Nc2ccccc2SC1` came in with a TGI of more than 100 µM.

For another experiment, the system named is NCI-H460 lung. Kind of experiment: DTP human tumour cell line panel, 48 h.
For the molecule `C[C@@H]1CC[C@H]2C(COCC3=C(C(F)(F)F)O[C@@H]4O[C@@]5(C)CC[C@H]6[C@H](C)CC[C@@H]3[C@@]46OO5)=C(C(F)(F)F)O[C@@H]3O[C@@]4(C)CC[C@@H]1[C@]32OO4`, the GI50 was less than 0.01 µM and the TGI is more than 100 µM.

With `CCOc1ccc(NC(=O)CC2Sc3ccccc3NC2=O)cc1` (stereo not drawn), the concentration for total growth inhibition (TGI) was more than 100 µM.

Turning to `Cn1cc(NC(=O)c2cc(NC(=O)CCCCCCCCCCC(=O)Nc3cc(C(=O)Nc4cc(C(=O)NCCC(=N)N)n(C)c4)n(C)c3)cn2C)cc1C(=O)NCCC(=N)N`, the TGI is more than 100 µM.

For `C1COCCN1.C1COCCN1.N.N.[Cl-].[Pt+2]`, the GI50 is more than 100 µM and the TGI was more than 100 µM.

`Cc1ccccc1C(C#N)C(=O)C(=O)Nc1nc([N+](=O)[O-])cs1` (stereo not drawn) showed a concentration for total growth inhibition (TGI) of more than 100 µM.

The record behind these values is PubChem BioAssay (NCI).
